Results on two compounds are retold here after article PMC9545474, “Anticancer Water‐Soluble Organoruthenium Complexes: Synthesis and Preclinical Evaluation” (Chembiochem, 2022).

Series [1] has as its system H460 non-small-cell lung cancer cells. Briefly: 24-hour MTT chemosensitivity assay with 72-hour recovery, H460. The series is classed as cell-based. As to conditions: for IC50: 24 h exposure, 72 h recovery, MTT, read-out: IC50 values ±SD, H460; for Selectivity index (SI), H460: mean IC50 PNT2 / mean IC50 H460. Here is the method: Chemosensitivity studies were undertaken using a 24‐hour MTT assay, with a 72‐hour recovery period. The IC50 values were determined against ovarian A2780 (cisplatin‐sensitive) and A2780cisR (cisplatin‐resistant) cancer cell lines, non‐small‐cell lung H460 cancer cell line, and normal prostate PNT2 cell line, exposed to each of compounds 4–8, cisplatin or the phosphine ligands (Table 1 and S4, Figures S29–S31). […] This is unusual but can be related to solubility issues not visible for the naked eye and thus hindering its activity in cells. […] When tested on their own, the phosphine ligands are not active below 100 μM for all four cell lines. […] This therefore prevents comparison with the well‐known RAPTA family, and more especially with RAPTA−C which bears a PTA ligand and a p‐cym ligand, making this complex relatively similar in terms of geometry with complex 4.[21] […] This confirms the interest of the sulfur coordinating atom in terms of cytotoxicity for organoruthenium complexes.[23]
Chemosensitivity assay: In vitro chemosensitivity tests were performed against A2780, A2780cisR, PNT2 and H460 cells. Cells were routinely maintained as monolayer cultures in RPMI 1640 medium supplemented with 10 % foetal calf serum, penicillin (100 I.U./mL) and streptomycin (100 μg/mL), sodium pyruvate (1 mM) and L‐glutamine (2 mM). For chemosensitivity studies, cells were seeded in 96‐well plates at a concentration of 7.5×10^3 cells per well and the plates were incubated for 24 h at 37 °C and a 5 % CO2 humidified atmosphere prior to drug exposure.
Complexes were dissolved in either DMSO (complexes 4, 5, and 8) or PBS (complexes 6 and 7) to provide stock solutions which were further diluted with media to provide a range of final concentrations. Drug‐media solutions were added to cells (the final concentration of DMSO was less than 1 % (v/v) in all cases) and incubated for 24 h at 37 °C and a 5 % CO2 humidified atmosphere. The drug‐media solution was removed from the wells and the cells were washed with PBS (100 μL, twice) and 200 μL of complete fresh media were added to each well. The plates were further incubated for 72 h at 37 °C and a 5 % CO2 humidified atmosphere to allow for a period of recovery. 3‐(4,5‐dimethylthiazol‐2‐yl)‐2,5‐diphenyltetrazolium bromide (MTT) (40 μL, 2.5 mg/mL) was added to each well and plates were incubated for 2 h. All solutions were then removed and 100 μL of DMSO was added to each well in order to dissolve the purple formazan crystals. A Thermo Scientific Multiskan EX microplate photometer was used to measure the absorbance in each well at 570 nm. Cell survival was determined as the absorbance of treated cells divided by the absorbance of controls and expressed as a percentage. The IC50 values were determined from plots of % survival against drug concentration. Each experiment was repeated in triplicates of triplicates and a mean value was obtained and stated as IC50 (μM) ± SD. Untreated cells were used as a negative control, and cells treated with cisplatin were used as a positive control.

The test system of another series is A2780cisR cells. Briefly: Cell viability with N-acetylcysteine (MTT), A2780cisR. Type of series: cell-based, human. As to conditions: NAC 5 mM 30 min before complexes at IC50. Here is the method: Cell viability with N ‐acetylcysteine: Cells were seeded in 96‐well plates at a concentration of 7.5×10^3 cells per well and the plates were incubated for 24 h at 37 °C and a 5 % CO2 humidified atmosphere prior to drug exposure. Complexes were dissolved in either DMSO or PBS to provide stock solutions which were further diluted with media to provide a range of final concentrations. Solution of N‐acetylcysteine (NAC) in media was also prepared. […] Cells were incubated for 24 h at 37 °C and a 5 % CO2 humidified atmosphere. 3‐(4,5‐dimethylthiazol‐2‐yl)‐2,5‐diphenyltetrazolium bromide (MTT) (20 μL, 2.5 mg/mL) was added to each well and plates were incubated for 2 h. All solutions were then removed and 100 μL of DMSO was added to each well in order to dissolve the purple formazan crystals. A Thermo Scientific Multiskan EX microplate photometer was used to measure the absorbance in each well at 570 nm. Cell survival was determined as the absorbance of treated cells divided by the absorbance of controls and expressed as a percentage.

Series [2] deals with A2780cisR subcutaneous tumour xenograft. Description: Efficacy in A2780cisR (A2780/cis) subcutaneous tumour xenograft model. The series is classed as in vivo, Female Balb/c immunodeficient nude mice. As to conditions: 6 at 50 mg/kg, 8 at 15 mg/kg, i.p.; for Median time to RTV2 / Maximum % weight loss / Growth delay: A2780/cis xenograft, days 0–4; for Maximum % weight loss: day in brackets; for Growth delay: versus untreated. Here is the method: Compounds: All compounds were provided in powdered form and stored in the −20 °C freezer. They were formulated just before use. […] The drugs were then administered within 10 minutes of initial dilution.
Animals: Female Balb/c immunodeficient nude mice aged 6–12 weeks were used (Envigo, Blackthorn, UK). Mice were kept in cages housed in isolation cabinets in an air‐conditioned room with regular alternating cycles of light and darkness. They received Teklad 2018 diet (Envigo, Blackthorn, UK) and water ad libitum. All animal procedures were carried out under a project licence issued by the UK Home Office and UK National Cancer Research Institute Guidelines for the Welfare of Animals were followed throughout.
S.c. xenograft tumours: A2780/WT and A2780/cis tumours were excised from a donor animal, placed in sterile physiological saline containing antibiotics and cut into small fragments of approximately 5 mm^3. Under brief general inhalation anaesthesia, fragments were implanted in the flank of each mouse using a trocar. Once the tumours could accurately be measured by callipers, the mice were allocated into groups (control or treated) by restricted randomisation to keep group mean tumour size variation to a minimum, with 3 animals set up per group.
Evaluation of efficacy in s.c. xenograft models: The compounds were prepared fresh on the days of treatment as described above and administered i. p. to mice on days 0–4 in a volume of 0.1 mL per 10 g of body weight. […] The negative control group was untreated.
The effects of therapy were assessed by frequent monitoring growth of the tumours and body weight. Two‐dimensional calliper measurements of the tumours were taken, and volumes calculated using the formula (a^2×b)/2, where a is the smaller and b the larger diameter of the tumour. Tumour volume was then normalised to the respective volume on day 0, and semi‐log plots of relative tumour volume (RTV) versus time were made. Mann‐Whitney U tests were performed to determine the statistical significance of any differences in growth rate (based on tumour volume doubling time, RTV2) between control and treated groups.

A further series has as its system A2780 cells. Description: ROS detection, DCFH2-DA assay by flow cytometry. Type of series: cell-based, human. As to conditions: A2780, five hours, IC50 concentrations.

Protocol for A2780 cells: To confirm the hypothesis of induction of oxidative stress by complexes 6 and 8, based on the potential mechanism of action observed for complex 3, the intracellular production of ROS in A2780 cells exposed to the complexes was investigated using the fluorescent DCFH2‐DA assay with the analysis performed by flow cytometry.
ROS detection: Flow cytometry analysis of total induction of ROS in A2780 cells caused by exposure to complexes 6 and 8 was carried out using DCFH2‐DA assay. Briefly, 1.0×10^6 cells per well were seeded in a 6‐well plate and incubated for 24 at 37 °C and a 5 % CO2 humidified atmosphere. After removal of the media, cells were washed with PBS and loaded with DCFH2‐DA dye (20 μM, in basal RPMI). […] Cells were washed with PBS and harvested with trypsin. Cells were analysed in a BD Accuri C6 Plus System Flow Cytometer using Ex/Em: 490/525 nm for the oxidative stress detection. Data was analysed using the BD Accuri C6 Plus software.

Take `Cc1ccc(C(C)C)cc1.N#CC1=C(C#N)[S][Ru-]([P+](c2ccccc2)(c2ccccc2)c2ccccc2)[S]1` [Complex 8, (η^6‐p‐cymene)(PPh3)Ru(Mnt)]: in series [1], the IC50 worked out at 5.7 ± 0.8 µM and the “Selectivity index (SI), H460” value is 0.42. Besides, the “Cell viability after pre-treatment with NAC” value in the series with A2780cisR cells is reported as “increase of the cell viability”. Besides, in series [2], the “Median time to RTV2” value worked out at 10.0 days, the “Maximum % weight loss” value was 2% and the Growth delay is 7.2 days. Moreover, the “Toxicity in xenograft study” value in series [2] (A2780cisR xenograft) is recorded as “No toxicity was observed”. Moreover, the “ROS levels in treated cells compared to untreated cells” value with A2780 cells is listed as “significant increase of ROS levels”.
“(η^6‐p‐cymene)(TPPTS)Ru(Mnt) [Complex 6]”: in series [1], the IC50 turned out to be 2 ± 0.2 µM and the “Selectivity index (SI), H460” value amounted to 0.80. Besides, the “Cell viability after pre-treatment with NAC” value with A2780cisR cells is given as “increase of the cell viability”. Further, in series [2], the “Median time to RTV2” value is listed as 3.0 days, the “Maximum % weight loss” value came to 2% and the Growth delay worked out at 0.2 days. Further, the “ROS levels in treated cells compared to untreated cells” value with A2780 cells was “significant increase of ROS levels”.
